Active and inactive are the calls of the source.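 How the source made its calls: active means clearly stronger inhibition of phosphomevalonate kinase than of the coupling enzymes alone in a parallel counterscreen; inactive means the rest.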
target: not listed separately; assay: phosphomevalonate kinase inhibition IC50 – biochemical, mevalonate pathway, coupling enzyme counter-screen, dose response (AID 549); conditions: PMK enzyme, PK/LDH coupled NADH absorbance 340 nm; measured here: coupling enzymes counter-screen (hexokinase)

SMILES	IC50 [µM]
O=c1c2ccccc2[se]n1-c1ccccc1	73.1
COc1cccc(OC)c1-c1nn2c(-c3cc(-c4ccccc4)n[nH]3)nnc2s1	42.7
CCOC(=O)c1cc2c(=O)n3cccc(C)c3nc2n(CCCOC)c1=NC(=O)c1cccnc1	13.6
CCOC(=O)N1C(=O)c2cc(OC)ccc2S1(=O)=O	18.6
CCOC(=O)C1=C(C)NC(=O)NC1c1c(C)nn(-c2ccccc2)c1Cl (configuration not stated)	3.54

target: phosphomevalonate kinase (Streptococcus pneumoniae D39); assay: as above; conditions: PMK enzyme, PK/LDH coupled NADH absorbance 340 nm

SMILES	IC50	outcome
O=c1c2ccccc2[se]n1-c1ccccc1	inactive	–
COc1cccc(OC)c1-c1nn2c(-c3cc(-c4ccccc4)n[nH]3)nnc2s1	inactive	–
CCOC(=O)c1cc2c(=O)n3cccc(C)c3nc2n(CCCOC)c1=NC(=O)c1cccnc1	inactive	–
CCOC(=O)N1C(=O)c2cc(OC)ccc2S1(=O)=O	inactive	–
O=C(Nc1c(-c2ccccc2)nc2sccn12)c1ccccc1	–	inactive
CCc1nnc(NC(=O)c2cccs2)s1	–	inactive
COCCCNC(=O)c1ccc(N2CCCC2)c(NS(=O)(=O)c2ccc(C)cc2)c1	–	inactive
Cc1cc(C)cc(CC2CC(=O)N(c3nc(C)cc(C)n3)C2=O)c1 (configuration not stated)	–	inactive
CC(CN1CCN(C)CC1)OC(=O)c1ccc(Cl)cc1 (configuration not stated)	–	inactive
O=C(Nc1ccc(-c2noc(COc3ccccc3Cl)n2)cc1)c1ccco1	–	inactive
CCOC(=O)C1CCCN(C(=O)C2CCCN(S(C)(=O)=O)C2)C1 (configuration not stated)	–	inactive
O=C(Cc1coc(-c2ccc(F)cc2)n1)N1CCOCC1	–	inactive
Cc1csc(NC(=O)CN2CCCCCC2)n1	–	inactive
CCOc1ccc(-c2nnc(SCC(=O)N3CCN(c4ccccc4)CC3)o2)cc1	–	inactive
CC1(C)CC(C)(O)P(=O)(c2ccccc2)O1 (configuration not stated)	–	inactive
COc1ccc(C2C(=O)N(C3CCCCC3)CC(=O)N2CCc2ccccc2)cc1OC (configuration not stated)	–	inactive
COc1ccc(C2C3=C(OC(C)=O)c4ccccc4C3=Nc3c2c(=O)n(C)c(=O)n3C)cc1 (configuration not stated)	–	inactive
Cc1csc(NC(=O)C2CCC(C)(C(=O)O)C2(C)C)n1 (configuration not stated)	–	inactive
CCc1nn(C(C)C(=O)NCCc2ccc(OC)c(OC)c2)c(=O)c2cc3occc3n12 (configuration not stated)	–	inactive
N#CC(C(=O)NC1CCCCC1)c1nc2ccccc2nc1N1CCCCC1 (configuration not stated)	–	inactive
O=C(Nc1cccc2ccccc12)c1cnccn1	–	inactive
COc1ccc(C(=O)Nc2ccccc2C(=O)NC(C(=O)NCc2ccco2)C(C)C)cc1 (configuration not stated)	–	inactive
Cc1cc(=O)n2[nH]c(-c3ccccc3Cl)cc2n1	–	inactive
O=C(NCc1ccccc1)C1C2C=CC3(CN(Cc4cccnc4)C(=O)C13)O2 (configuration not stated)	–	inactive
CCS(=O)(=O)N1CCC(C(=O)NCc2ccco2)CC1	–	inactive

SMILES	IC50	outcome
Cc1ccc(NC(=O)CSc2nnc(Cn3c(=O)sc4ccccc43)n2C)cc1Cl	–	inactive
CCCCS(=O)(=O)C(=C1Nc2ccccc2N1)S(=O)(=O)CCCC	–	inactive
CCOc1ccc2[nH]c(=O)c(C(c3nnnn3CC3CCCO3)N3CCc4ccccc4C3)cc2c1 (configuration not stated)	–	inactive
N#Cc1c(N)sc(=S)c2c1CCN(Cc1ccccc1)C2	–	inactive
Cc1cc2c(C(F)(F)F)cc(=O)oc2c2c1NCCC2	–	inactive
COc1cc2cc(CN(CCCO)S(=O)(=O)c3ccccc3Cl)c(=O)[nH]c2cc1OC	–	inactive
CC(C)OC(=O)CN1C(=O)c2ccccc2C1=O	–	inactive
Cc1ccc(-c2nnn(CC(=O)N(CC(=O)NCC3CCCO3)c3ccc(F)c(Cl)c3)n2)o1 (configuration not stated)	–	inactive
CCOc1ccccc1C(=O)NCC(=O)OCC(=O)c1ccc2c(c1)OCCO2	–	inactive
COc1ccc(OCC(=O)N2CCN(c3nnc(-c4ccccc4)c4ccccc34)CC2)cc1	–	inactive
Cc1n[nH]c(C)c1N1C(=O)c2cccc3c(N4CCCCCC4)ccc(c23)C1=O	–	inactive
Cn1cnnc1SCC(=O)n1c2ccccc2c2ccccc21	–	inactive
CN1C(=O)OC2(C)CCc3ccccc3C12C (configuration not stated)	–	inactive
O=C(CSc1nc(-c2ccccc2)cs1)N1CCN(C(=O)c2ccco2)CC1	–	inactive
COc1cc2nc(C3CCC3)n(NC(=O)C3CCCC(OC)C3)c(=O)c2cc1OC (configuration not stated)	–	inactive
Cc1cccc(-n2nc3c(c2NC(=O)c2ccco2)CSC3)c1C	–	inactive
Cn1c(=O)c2c(-c3ccccc3)n(C3CCCCC3)cc2n(C)c1=O	–	inactive
CCCn1cnc2c(cnn2-c2ccc(F)cc2)c1=O	–	inactive
CS(=O)(=O)N1CCN(C(=O)CCC2CCCC2)CC1	–	inactive
O=C(O)C1=C(C(=O)Nc2ccc(F)c(Cl)c2)CCCC1	–	inactive
COCCCNC(=O)CN(C1CCCCC1)S(=O)(=O)c1ccc(C)cc1	–	inactive
CCOc1ccc(S(=O)(=O)NCCCN2CCOCC2)c2ccccc12	–	inactive
CC(OC(=O)c1cccs1)C(=O)NCC1CCCO1 (configuration not stated)	–	inactive
c1cncc(C(c2nnnn2C2CCCC2)N2CCCC2)c1 (configuration not stated)	–	inactive
CON(C)c1nc(OCCNC(=O)OCc2ccc(Cl)cc2Cl)nc(N(C)C)n1	–	inactive

SMILES	IC50	outcome
CC1(C)CC(=O)C(C(C2=C(O)CC(C)(C)CC2=O)c2cccc(O)c2)C(=O)C1 (configuration not stated)	–	inactive
O=C(NCCCN1CCN(Cc2ccccc2)CC1)C1CCN(S(=O)(=O)N2CCCC2)CC1	–	inactive
O=C(Cc1cn2ccsc2n1)OCc1nc2ccccc2s1	–	inactive
Cc1nonc1NC(=O)CSc1ccc(-c2ccccc2)nn1	–	inactive
NC(=O)CCN(Cc1ccccc1)S(=O)(=O)c1ccccc1	–	inactive
CN1CC(=O)NC1=NC(=O)c1ccc(Cl)c(S(=O)(=O)N2CCCCCC2)c1	–	inactive
CCOC(=O)C1=C(C)NC(=O)NC1c1c(C)nn(-c2ccccc2)c1Cl (configuration not stated)	inactive	–
COCC(C)n1c(COc2ccccc2F)nnc1SCc1c(C)noc1C (configuration not stated)	–	inactive
Cc1c2cnn(CC(=O)N3CCC4(CC3)OCCO4)c(=O)c2c(C)n1Cc1ccc(F)cc1	–	inactive
COc1cccc2cc(C(=O)N3CCN(c4ccccc4F)CC3)c(=O)oc12	–	inactive
CS(=O)(=O)N(CC(=O)N1CCN(c2ccccc2)CC1)C1CCCCC1	–	inactive
O=C(NCc1ccc2c(c1)OCO2)c1cc2n(n1)C(C(F)(F)F)CC(c1ccc3c(c1)OCO3)N2 (configuration not stated)	–	inactive
Cc1ccnc(N2CCC(C(=O)Nc3ccc(Oc4ccccc4)cc3)CC2)n1	–	inactive
COC(=O)CNc1nc(-c2ccccc2F)nc2ccccc12	–	inactive
CC1(C)CC(=O)c2cc(OCC(=O)N3CCN(c4ccccc4F)CC3)ccc2O1	–	inactive
COCCNC(=O)C1CCCN(c2nn3c(=O)cc(C)nc3s2)C1 (configuration not stated)	–	inactive
CCOC(=O)C1=C(NC(=O)c2ccc(Br)o2)Nc2ccccc2N=C1	–	inactive
Cc1ccc(-c2noc(CCC(=O)NCCN3CCc4ccccc4C3)n2)cc1	–	inactive
CCOc1cc(N2CCOCC2)c(OCC)cc1NC(=O)Cc1ccc(OC)c(OC)c1	–	inactive
CCCOc1ccc(-c2nnn(CC(=O)Nc3cccc(C(=O)OC)c3)n2)cc1	–	inactive
COc1cc(OC)nc(NC(=O)NS(=O)(=O)c2ccc(OC(F)(F)F)cc2)n1	–	inactive
N=c1n(CCN2CCOCC2)c2ccccc2n1CC(=O)c1ccc(Cl)c(Cl)c1	–	inactive
Cn1nc(CC(=O)Nc2ncc(Br)s2)c2ccccc2c1=O	–	inactive
CC(C)n1nnnc1SCC(=O)Nc1ccccc1N1CCOCC1	–	inactive
CC(=O)N1CCc2cc(S(=O)(=O)NC3CCCc4ccccc43)ccc21 (configuration not stated)	–	inactive

SMILES	IC50	outcome
COc1ccc(NC2CC(=O)NC2=O)cc1 (configuration not stated)	–	inactive
CC(C)COC(=O)NCC12C=CC(O1)C1C(=O)N(c3ccc(Cl)cc3)C(=O)C12 (configuration not stated)	–	inactive
COc1ccccc1NC(=O)C1=C(C)NC2=C(C(=O)CCC2)C1c1ccc(C)o1 (configuration not stated)	–	inactive
Cc1nc2ccc3nc(NC(=O)c4ccco4)sc3c2s1	–	inactive
O=c1oc2c3c4c(cc2cc1-c1nc2ccccc2[nH]1)CCCN4CCC3	–	inactive
CCN(CC)CCSc1nc(O)c(C(C)C)c(=O)[nH]1	–	inactive
O=C(c1cccnc1)N1CCc2ccccc2C1	–	inactive
COc1cc2[nH]c(=O)n(CCC(=O)NC3CCN(Cc4ccccc4)CC3)c(=O)c2cc1OC	–	inactive
Cn1c(SCC(=O)NCc2ccco2)nc2ccccc2c1=O	–	inactive
CCOCCCN1C(=O)CN(C2CCCCC2)C(=O)C1c1ccc(OCC)c(OC)c1 (configuration not stated)	–	inactive
Cc1ccccc1OCCCCc1c(C)n[nH]c1C	–	inactive
CCOC(=O)CCn1c2nc(C)cc(C)c2c(=O)n1-c1ccccc1	–	inactive
O=C(c1ccc(CS(=O)(=O)Cc2ccc(Cl)cc2)o1)N1CCCC1	–	inactive
CN1CCN(S(=O)(=O)c2cccc(S(=O)(=O)c3ccc(Cl)c(Cl)c3)c2)CC1	–	inactive
O=C(CCc1nc2ccccc2c(=O)[nH]1)OCC(=O)N1CCN(S(=O)(=O)c2ccccc2)CC1	–	inactive
CCOc1cc(C#N)c(NC(=O)c2cccnc2)cc1OCC	–	inactive
CCOCCCNC(=O)C1CCN(S(=O)(=O)CC)CC1	–	inactive
CCS(=O)(=O)N1CCC(C(=O)NCC2CCCO2)CC1 (configuration not stated)	–	inactive
CCOCC(=O)NC1CCSC1=O (configuration not stated)	–	inactive
COCCNC(=O)C(c1ccc(C)o1)N(Cc1ccc(OC)cc1)C(=O)Cn1nnc2ccccc21 (configuration not stated)	–	inactive
COc1ccc(N2CCN(C(c3ccco3)c3sc4nc(C)nn4c3O)CC2)cc1 (configuration not stated)	–	inactive
O=C(CN(C(=O)CNS(=O)(=O)c1ccccc1)C1CCCC1)NCc1ccco1	–	inactive
